Reference: patent publication US8952150B2, “Prostaglandin transporter inhibitors and uses thereof” (Albert Einstein College of Medicine of Yeshiva University, priority 2009, dated 2015)

Molecular target: rat PGT (Rattus norvegicus (Rat), UniProt Q00910)
Assay: [3H]PGE2 uptake inhibition in MDCK cells stably transfected with rat PGT (percent inhibition and IC50)
Type: cell-based
Conditions: for Inh (% of Ctl) 1 μM: 1 μM compound; for Inh (% of Ctl) 1 μM / Inh (% of Ctl) 10 μM / Inh (% of Ctl) 0.1 μM / Inh (% of Ctl) 0.5 μM / Inh (% of Ctl) 5 μM / Inh (% of Ctl) 2.5 μM: inhibition of [3H]PGE2 uptake; for Inh (% of Ctl) 10 μM: 10 μM compound; for Inh (% of Ctl) 0.1 μM: 0.1 μM compound; for Inh (% of Ctl) 0.5 μM: 0.5 μM compound; for IC50: [3H]PGE2 uptake, MDCK cells stably transfected with rat PGT; for Inh (% of Ctl) 5 μM: 5 μM compound; for Inh (% of Ctl) 2.5 μM: 2.5 μM compound
Protocol: MDCK cells stably transfected with rat PGT (Endo et al., 2002) were seeded at 15-20% confluence on 24-well plates. The day on which the cells were seeded was considered day 1. PGE2 uptake experiments were conducted on day 4. All of the PGE2 uptake experiments were conducted at room temperature. On day 4, cells were washed twice with Waymouth buffer (135 mM NaCl, 13 mM H-Hepes, 13 mM Na-Hepes, 2.5 mM CaCl2, 1.2 mM MgCl2, 0.8 mM MgSO4, 5 mM KCl, and 28 mM D-glucose). Then 200 μL of Waymouth buffer containing [^3H]PGE2 (purchased from Perkin Elmer) was added to each well. At the designed time, the uptake of [^3H]PGE2 was stopped by aspiration of uptake buffer; this was followed by immediate washing twice with 500 μL of chilled Waymouth buffer. Cells were then lysed with 100 μL lysis buffer containing 0.25% SDS and 0.05 N NaOH. 1.5 mL of scintillation solution was added to each well, and intracellular [^3H]PGE2 was counted by MicroBeta Counter.
For preliminary testing of the compounds, 20 μL of Waymouth buffer containing the compound was added to each well; this was immediately followed by the addition of 180 μL of Waymouth buffer containing [^3H]PGE2. In each well, the total volume of uptake medium was 200 μL. Organic compounds were first dissolved in EtOH and then diluted in Waymouth buffer. The percent inhibition of [^3H]PGE2 uptake by compounds was calculated as [(uptakevehicle−uptakeinhibitor)÷(uptakevehicle)]×100.
IC50 was calculated by fitting an equation of y=m1−m1*(m0/(m2+m0)).

| Structure (SMILES) | Inh (% of Ctl) 1 μM | Inh (% of Ctl) 10 μM | Inh (% of Ctl) 0.1 μM | Inh (% of Ctl) 0.5 μM | IC50 [nM] | Inh (% of Ctl) 5 μM | Inh (% of Ctl) 2.5 μM |
| --- | --- | --- | --- | --- | --- | --- | --- |
| COc1cccc(C(=O)NCCOCCOCCNc2nc(Nc3ccccc3)nc(Nc3ccc(O)cc3)n2)c1 [compound 37] | 32.4 % of Ctl | 79.0 % of Ctl | – | – | – | – | – |
| CN(c1ccc(C(=O)NCc2ccccc2)cc1)c1nc(NCCOCCOCCNC(=O)c2ccccc2)nc(Nc2ccc(O)cc2)n1 [compound 124] | – | – | 68.8 % of Ctl | 85.4 % of Ctl | 34 | – | – |
| O=C(NCCOCCOCCNc1nc(Nc2ccccc2)nc(Nc2ccc3cn[nH]c3c2)n1)c1ccccc1 [compound 75] | 8.4 % of Ctl | 12.5 % of Ctl | – | – | – | 10.1 % of Ctl | – |
| O=C(NCCOCCOCCNc1nc(Nc2ccc(O)cc2)nc(Nc2ccc(C(=O)NCc3ccccc3)cc2)n1)c1ccccc1 [compound 22] | – | 95.5 % of Ctl | – | 62.4 % of Ctl | 42.7 | 88.1 % of Ctl | – |
| O=C(NCCOCCOCCNc1nc(Nc2ccc(O)cc2)nc(Nc2ccc(C(=O)NCc3ccc(Cl)cc3)cc2)n1)c1ccccc1 [compound 91] | – | – | 60.8 % of Ctl | 72.1 % of Ctl | 620 | 88.0 % of Ctl | 84.0 % of Ctl |
| Cc1cccc(CNC(=O)c2ccc(Nc3nc(NCCOCCOCCNC(=O)c4ccccc4)nc(Nc4ccc(O)cc4)n3)cc2)c1 [compound 107] | – | – | 65.2 % of Ctl | 56.3 % of Ctl | – | 91.3 % of Ctl | 80.7 % of Ctl |
| O=C(NCCOCCOCCNc1nc(Nc2ccc(O)cc2)nc(Nc2ccc(C(=O)NCc3cccc(F)c3F)cc2)n1)c1ccccc1 [compound 126] | 70.0 % of Ctl | – | 24.0 % of Ctl | 56.3 % of Ctl | – | – | – |
| O=C(NCCOCCOCCNc1nc(Nc2ccccc2)nc(Nc2ccc(-c3nnn[nH]3)cc2)n1)c1ccccc1 [compound 54] | 33.7 % of Ctl | 52.2 % of Ctl | – | – | – | – | – |
| O=C(NCCOCCOCCNc1nc(Nc2ccc(O)cc2)nc(Nc2ccc(C(=O)NCc3cccc(C(F)(F)F)c3)cc2)n1)c1ccccc1 [compound 101] | – | – | 47.4 % of Ctl | 54.0 % of Ctl | – | 91.4 % of Ctl | 71.0 % of Ctl |
| O=C(NCCOCCNc1nc(Nc2ccc(O)cc2)nc(Nc2ccc(C(=O)NCc3ccccc3)cc2)n1)c1ccncc1 [compound 135] | 49.6 % of Ctl | – | 13.2 % of Ctl | 28.4 % of Ctl | – | – | – |
| O=C(NCCOCCNc1nc(Nc2ccc(O)cc2)nc(Nc2ccc(C(=O)NCc3ccccc3)cc2)n1)c1ccc(F)cc1 [compound 136] | 77.9 % of Ctl | – | 33.3 % of Ctl | 64.1 % of Ctl | 23.9 | – | – |
| O=C(NCCOCCOCCNc1nc(Nc2ccc(O)cc2)nc(Nc2ccc(C(=O)NCCc3ccccc3)cc2)n1)c1ccccc1 [compound 111] | – | – | 52.2 % of Ctl | 59.1 % of Ctl | – | 93.2 % of Ctl | 81.5 % of Ctl |
| O=C(NCCOCCOCCNc1nc(Nc2ccccc2)nc(Nc2ccc(O)cc2)n1)c1cc(F)cc(F)c1 [compound 35] | 20.4 % of Ctl | 75.6 % of Ctl | – | – | – | – | – |
| COc1cccc(CNC(=O)c2ccc(Nc3nc(NCCOCCOCCNC(=O)c4ccccc4)nc(Nc4ccc(O)cc4)n3)cc2)c1 [compound 88] | – | – | 61.8 % of Ctl | 67.6 % of Ctl | 820 | 88.2 % of Ctl | 82.6 % of Ctl |
| O=C(NCCOCCOCCNc1nc(Nc2ccccc2)nc(Nc2ccc(O)cc2)n1)c1ccc(F)cc1 [compound 30] | 26.1 % of Ctl | 78.25 % of Ctl | – | – | – | – | – |
| O=C(NCCOCCOCCNc1nc(Nc2ccc(O)cc2)nc(Nc2ccc(C(=O)Nc3ccccc3)cc2)n1)c1ccccc1 [compound 103] | – | – | – | 38.3 % of Ctl | – | 83.7 % of Ctl | 62.2 % of Ctl |
| CN(C)c1nc(NCCOCCOCCNC(=O)c2ccccc2)nc(Nc2ccc(O)cc2)n1 [compound 9] | – | – | – | 1.3 % of Ctl | – | 18.8 % of Ctl | – |
| COC(=O)c1ccc(CNc2nc(NCCOCCOCCNC(=O)c3ccccc3)nc(Nc3ccc(C(=O)NCc4ccccc4)cc3)n2)cc1 [compound 117] | – | – | 8.1 % of Ctl | 36.7 % of Ctl | – | – | – |

| Structure (SMILES) | Inh (% of Ctl) 1 μM | Inh (% of Ctl) 10 μM | Inh (% of Ctl) 0.1 μM | Inh (% of Ctl) 0.5 μM | IC50 [nM] | Inh (% of Ctl) 5 μM | Inh (% of Ctl) 2.5 μM |
| --- | --- | --- | --- | --- | --- | --- | --- |
| O=C(NCCOCCOCCNc1nc(Nc2ccc(O)cc2)nc(Nc2ccc(C(=O)OCc3ccccc3)cc2)n1)c1ccccc1 [compound 69] | – | – | – | 24.9 % of Ctl | 890 | 83.2 % of Ctl | – |
| O=C(NCCOCCNc1nc(Nc2ccc(O)cc2)nc(Nc2ccc(C(=O)NCc3ccc(Cl)cc3)cc2)n1)c1ccccc1 [compound 98] | – | – | – | 6.7 % of Ctl | – | 75.1 % of Ctl | 24.9 % of Ctl |
| O=C(NCCOCCOCCNc1nc(Nc2ccccc2)nc(Nc2ccc(O)cc2)n1)c1cccc(Br)c1 [compound 36] | 30.3 % of Ctl | 81.1 % of Ctl | – | – | – | – | – |
| NCCOCCOCCNc1nc(Nc2ccccc2)nc(Nc2ccc(O)cc2)n1 [compound 45] | 5.0 % of Ctl | 12.9 % of Ctl | – | – | – | – | – |
| O=C(NCCOCCOCCNc1nc(Nc2ccccc2)nc(Nc2ccc(O)cc2)n1)Nc1ccccc1 [compound 42] | 22.8 % of Ctl | 57.6 % of Ctl | – | – | – | – | – |
| O=C(NCCOCCOCCNc1nc(Nc2ccc(O)cc2)nc(Nc2ccc(C(=O)N[C@H](C(=O)O)c3ccccc3)cc2)n1)c1ccccc1 [compound 80] | – | – | – | 0.7 % of Ctl | – | 57.2 % of Ctl | 21.8 % of Ctl |
| COc1cc(Nc2nc(NCCOCCOCCNC(=O)c3ccccc3)nc(Nc3ccc(O)cc3)n2)ccc1C(=O)NCc1ccccc1 [compound 81] | – | – | – | 0.4 % of Ctl | – | 80.1 % of Ctl | 16.2 % of Ctl |
| O=C(NCCOCCOCCNc1nc(Nc2ccc(O)cc2)nc(Nc2ccc(C(=O)NCc3ccccc3)c(C(F)(F)F)c2)n1)c1ccccc1 [compound 82] | – | – | – | 2.1 % of Ctl | – | 47.6 % of Ctl | 5.0 % of Ctl |
| COC(=O)c1ccc(Nc2nc(NCCOCCOCCNC(=O)c3ccccc3)nc(Nc3ccc(O)cc3)n2)cc1 [compound 17] | – | – | – | 22.0 % of Ctl | 6570 | 55.6 % of Ctl | – |
| O=C(O)c1ccc(Nc2nc(NCCOCCOCCNC(=O)c3ccccc3)nc(Nc3ccc(O)cc3)n2)cc1 [compound 13] | – | – | – | 19.2 % of Ctl | – | 19.3 % of Ctl | – |
| O=C(O)c1cccc(Nc2nc(NCCOCCOCCNC(=O)c3ccccc3)nc(Nc3ccc(C(=O)NCc4ccc(F)cc4)cc3)n2)c1 [compound 150] | 23.9 % of Ctl | – | 4.2 % of Ctl | 14.3 % of Ctl | – | – | – |
| CN(C)c1nc(NCCOCCOCCNC(=O)c2ccccc2)nc(Nc2ccc(OCc3ccccc3)cc2)n1 [compound 5] | – | – | – | 6.6 % of Ctl | – | 9.6 % of Ctl | – |
| O=C(NCCOCCOCCNc1nc(Nc2ccc(O)cc2)nc(Nc2ccc(C(=O)NCc3ccc(F)cc3F)cc2)n1)c1ccccc1 [compound 131] | 74.3 % of Ctl | – | 22.3 % of Ctl | 47.0 % of Ctl | – | – | – |
| O=C(NCCOCCOCCNc1nc(Nc2ccc(O)cc2)nc(Nc2ccc(C(=O)NCc3ccc(C(F)(F)F)cc3)cc2)n1)c1ccccc1 [compound 113] | – | – | 36.8 % of Ctl | 49.2 % of Ctl | – | 92.4 % of Ctl | 84.1 % of Ctl |
| O=C(NCCOCCOCCNc1nc(Nc2ccc(O)cc2)nc(Nc2ccc(C(=O)NCc3ccccc3-c3ccccc3)cc2)n1)c1ccccc1 [compound 86] | – | – | 50.0 % of Ctl | 70.7 % of Ctl | 870 | 86.4 % of Ctl | 81.4 % of Ctl |
| O=C(NCCOCCOCCNc1nc(Nc2ccc(O)cc2)nc(Nc2ccc(C(=O)NCc3ccc(Br)cc3)cc2)n1)c1ccccc1 [compound 109] | – | – | 49.5 % of Ctl | 55.6 % of Ctl | – | 85.1 % of Ctl | 59.8 % of Ctl |
| O=C(NCc1ccccc1)c1ccc(Nc2nc(NCCOCCNC(=O)c3ccccc3C(F)(F)F)nc(Nc3ccc(O)cc3)n2)cc1 [compound 134] | 46.7 % of Ctl | – | 14.0 % of Ctl | 27.7 % of Ctl | – | – | – |
